The target of one assay is EDG3 (Homo sapiens, UniProt Q99500). Briefly: 35S-GTPγS binding assay, EDG3 (S1P3). It is filed as biochemical. Particulars: Table 1a. The procedure: (§1) a) 35S-GTPγS Binding Assay GTP-γ-^35S binding was performed using […]15 μg protein of cell membranes suspended in 50 mM tris-HCl pH 7.5 containing 10 mM MgCl2, 100 mM NaCl and 10 μM GDP. The radioligand was 0.025 nM [^35S] GTP-γ-S and non specific binding determined in the presence of 10 μM non-radioactive GTP-γ-S. […] The maximal stimulation elicited by S1P was taken as a reference to define full or partial agonism and calculate the intrinsic activity (i.a.) of compounds.
(In general: GTPγS resists hydrolysis and so accumulates on activated G proteins.)

A further assay deals with EDG5 (Homo sapiens, UniProt O95136). Briefly: 35S-GTPγS binding assay, EDG5 (S1P2). The format is biochemical. The conditions noted are these: Table 1a. As for the experimental part: as §1
The target in the next assay is hERG channel (Homo sapiens, UniProt Q12809). In words: biochemical. The procedure: c) Evaluation of Activity for hERG Blockade Liability
HEK293 cells were stably transfected with the human hERG receptor gene. Binding assays were performed using 5 μg of cell membranes expressing hERG channel resuspended in 10 mM Hepes pH 7.4, 135 mM NaCl, 60 mM DL-Aspartic Acid Potassium, 1 mM EGTA, 0.8 mM MgCl2, 10 mM (D+) Glucose, 0.01% BSA, in a final volume of 200 μL. For [^3H] […] Non specific binding was estimated in the presence of 1 μM Astemizole. The reaction was terminated by filtration through Durapore BV 1.2 μm filters pre-soaked in 3% polyethyleneimine 10 minutes at room temperature. Filters were rinsed 2 times with 250 μL of ice cold 25 mM Tris-HCl pH 7.4 buffer. The filter-bound radioactivity was measured in a liquid scintillation counter with 50 μL of scintillation fluid. [^3H]
The hERG binding investigated by use of [^3H]

The target of the next assay is EDG-1 (Homo sapiens, UniProt P21453). Briefly: 35S-GTPγS binding assay, EDG1 (S1P1). The format is biochemical. Particulars: for EC50: Table 1a, read-out: EC50 (nM) EDG1; for pEC50: read-out: EDG1 EC50. Details: expressed in transfected cells. The procedure:
as §1

A further assay deals with circulating lymphocytes. Briefly: Assessment of lymphopenia in rats. It is filed as in vivo. As for the experimental part:
b) Assessment of Lymphopenia
Lymphopenia was assessed in vivo. Experiments were done in non-fasted/fasted Swiss mice and/or: Sprague Dawley rats, Wistar rats, Beagle dogs, Cynomolgus monkeys. Compounds were administered orally in suspension in carboxymethyl-cellulose 0.5-1% in water (W/V). Blood was taken on anesthetized/non anaesthetized animal (4% isoflurane) and samples collected in EDTA-containing vacuum tubes from 1 h 30 to 72 hours post administration for lymphopenia measurement.
After 10 minutes stirring, cells were counted using ABC Vet haemocytometer (Scil vet animal Care) for rodent and dog or ADVIA 120 hematology analyzer for monkeys. Pharmacodynamic effect was measured by the decrease in circulating lymphocytes by test item treatment in comparison with haematological parameters of control animals or versus predosing in the same animals.

pEC50, pKi: −log10 of the molar value. Counter-ions that a name gives are not always drawn. Like-named read-outs stand apart in the source and are kept apart here.

For orientation: EC50 means the concentration at which the effect is half-maximal. By pKi is commonly meant the negative decadic logarithm of the Ki, by convention in mol/L. Read a high pKi as a low Ki. In general, pEC50 refers to −log10 of the EC50, conventionally taken in molar units.

EDG3, sequence (Q99500 whole entry, species assumed): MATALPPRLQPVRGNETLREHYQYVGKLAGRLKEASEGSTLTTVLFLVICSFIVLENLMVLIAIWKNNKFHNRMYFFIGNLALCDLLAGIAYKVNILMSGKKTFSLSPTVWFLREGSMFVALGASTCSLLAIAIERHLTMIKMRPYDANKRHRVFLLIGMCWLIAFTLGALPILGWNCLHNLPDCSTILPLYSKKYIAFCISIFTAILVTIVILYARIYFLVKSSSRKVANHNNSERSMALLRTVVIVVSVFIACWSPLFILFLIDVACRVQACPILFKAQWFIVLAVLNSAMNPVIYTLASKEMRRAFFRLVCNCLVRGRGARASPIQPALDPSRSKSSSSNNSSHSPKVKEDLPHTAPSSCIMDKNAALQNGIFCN
EDG-1, sequence (P21453 whole entry): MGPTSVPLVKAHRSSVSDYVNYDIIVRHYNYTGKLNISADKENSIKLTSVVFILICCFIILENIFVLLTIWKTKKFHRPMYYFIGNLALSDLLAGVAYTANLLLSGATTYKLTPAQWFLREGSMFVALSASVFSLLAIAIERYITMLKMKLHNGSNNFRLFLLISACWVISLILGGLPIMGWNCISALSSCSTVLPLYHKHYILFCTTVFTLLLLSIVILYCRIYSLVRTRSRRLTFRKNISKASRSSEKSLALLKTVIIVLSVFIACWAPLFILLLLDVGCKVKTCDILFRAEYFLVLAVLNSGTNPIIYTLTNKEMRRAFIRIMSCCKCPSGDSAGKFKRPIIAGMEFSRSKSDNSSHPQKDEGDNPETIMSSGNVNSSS
EDG5, sequence (O95136 whole entry, species assumed): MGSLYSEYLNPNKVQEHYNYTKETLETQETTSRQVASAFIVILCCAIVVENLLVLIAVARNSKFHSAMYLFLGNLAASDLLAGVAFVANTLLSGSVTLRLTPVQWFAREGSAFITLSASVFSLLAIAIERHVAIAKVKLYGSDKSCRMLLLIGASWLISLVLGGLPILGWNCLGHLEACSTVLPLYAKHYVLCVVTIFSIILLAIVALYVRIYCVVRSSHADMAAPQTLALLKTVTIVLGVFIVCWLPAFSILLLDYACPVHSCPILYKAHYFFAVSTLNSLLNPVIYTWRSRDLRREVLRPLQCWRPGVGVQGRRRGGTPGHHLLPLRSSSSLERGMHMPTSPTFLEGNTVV
hERG channel, sequence (Q12809 whole entry): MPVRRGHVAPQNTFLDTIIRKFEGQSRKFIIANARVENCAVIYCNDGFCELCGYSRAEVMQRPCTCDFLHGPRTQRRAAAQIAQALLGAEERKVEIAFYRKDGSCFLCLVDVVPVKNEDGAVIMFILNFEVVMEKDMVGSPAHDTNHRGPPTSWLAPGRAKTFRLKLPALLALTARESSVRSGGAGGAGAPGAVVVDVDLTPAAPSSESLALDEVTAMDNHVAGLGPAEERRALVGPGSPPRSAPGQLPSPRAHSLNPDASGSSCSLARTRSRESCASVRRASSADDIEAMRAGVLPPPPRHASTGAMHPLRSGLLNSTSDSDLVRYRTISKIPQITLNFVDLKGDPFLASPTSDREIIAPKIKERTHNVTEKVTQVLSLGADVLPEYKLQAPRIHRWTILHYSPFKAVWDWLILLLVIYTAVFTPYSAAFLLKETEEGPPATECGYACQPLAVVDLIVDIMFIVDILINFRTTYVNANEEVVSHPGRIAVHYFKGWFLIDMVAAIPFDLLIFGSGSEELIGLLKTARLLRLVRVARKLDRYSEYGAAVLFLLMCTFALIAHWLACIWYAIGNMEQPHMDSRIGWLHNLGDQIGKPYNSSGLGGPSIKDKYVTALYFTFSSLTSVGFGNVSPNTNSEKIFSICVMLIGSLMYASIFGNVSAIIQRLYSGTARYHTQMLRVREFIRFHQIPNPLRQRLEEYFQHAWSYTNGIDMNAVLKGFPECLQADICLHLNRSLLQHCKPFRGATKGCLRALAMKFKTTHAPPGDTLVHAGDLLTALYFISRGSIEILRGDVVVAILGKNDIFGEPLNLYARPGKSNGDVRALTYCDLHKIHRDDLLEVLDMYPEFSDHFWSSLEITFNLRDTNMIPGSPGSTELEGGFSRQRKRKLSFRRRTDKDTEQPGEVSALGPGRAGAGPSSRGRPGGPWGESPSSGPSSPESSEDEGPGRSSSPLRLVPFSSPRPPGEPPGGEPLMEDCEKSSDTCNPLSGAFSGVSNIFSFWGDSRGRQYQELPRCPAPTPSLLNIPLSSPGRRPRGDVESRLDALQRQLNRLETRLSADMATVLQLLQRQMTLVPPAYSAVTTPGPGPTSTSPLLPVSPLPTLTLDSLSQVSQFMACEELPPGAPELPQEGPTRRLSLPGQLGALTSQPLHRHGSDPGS

In the case of `CC1(C(=O)O)CCN(Cc2ccc(-c3noc(-c4ccc(C5CCCCC5)c(Cl)c4)n3)cc2)CC1` [Example 1, 1-{4-[5-(3-chloro-4-cyclohexylphenyl)-[1,2,4]-oxadiazol-3-yl]benzyl}-4-methylpiperidine-4-carboxylic acid], the values for the 50% effective concentration (EC50) on EDG3, on EDG5 and on EDG-1 were greater than 1000 nM, greater than 1000 nM and less than 1 nM, respectively. For the same compound, at hERG channel, the pKi is less than 5.00. For the same compound, on EDG-1 (Table 1b), the negative-log EC50 (pEC50) was greater than 9.00.
In the case of `CC(C)Cc1ccc(-c2nc(-c3ccc(CN4CCC(C)(C(=O)O)CC4)cc3)no2)cc1Cl` [Example 2, 1-{4-[5-(3-chloro-4-isobutylphenyl)-[1,2,4]-oxadiazol-3-yl]benzyl}-4-methylpiperidine-4-carboxylic acid, tert-butylamine salt], on hERG channel, the negative logarithm of the Ki (pKi) is less than 5.00. For the same compound, the “Lymphopenia in rats % lymphopenia at given dose at 24 hrs” value in the assay on circulating lymphocytes (0.3 mpk, 24 hrs, Sprague-Dawley female) is listed as 76% (0.3 mpk). Also, the EC50 at EDG-1 is less than 1 nM. Besides, the negative-log EC50 (pEC50) on EDG-1 (Table 1b) was greater than 9.00.
Turning to `CC1(C(=O)O)CCN(Cc2ccc(-c3noc(-c4ccc(C5CCCC5)c(Cl)c4)n3)cc2)CC1` [Example 7, 1-{4-[5-(3-chloro-4-cyclopentylphenyl)-[1,2,4]-oxadiazol-3-yl]benzyl}-4-methylpiperidine-4-carboxylic acid], the EC50 was 581 nM at EDG3, greater than 1000 nM on EDG5 and less than 1 nM on EDG-1. The compound also showed a negative logarithm of the Ki (pKi) on hERG channel of less than 5.00. The pEC50 at EDG-1 (Table 1b) was greater than 9.00.
For the compound `COCC1(C(=O)O)CCN(Cc2ccc(-c3noc(-c4ccc(C5CCCC5)c(Cl)c4)n3)cc2)CC1` [Example 9, 1-{4-[5-(3-chloro-4-cyclopentylphenyl)-[1,2,4]-oxadiazol-3-yl]benzyl}-4-methoxymethylpiperidine-4-carboxylic acid tert-butyl amine salt], the values for the EC50 on EDG3, on EDG5 and at EDG-1 were greater than 1000 nM, greater than 1000 nM and less than 1 nM, respectively. In addition, the pKi on hERG channel was less than 5.00. In addition, the pEC50 on EDG-1 (Table 1b) is greater than 9.00.
As for `CCCC1(C(=O)O)CCN(Cc2ccc(-c3noc(-c4ccc(CC(C)C)c(Cl)c4)n3)cc2)CC1` [Example 13, 1-{4-[5-(3-chloro-4-isobutylphenyl)-[1,2,4]-oxadiazol-3-yl]benzyl}-4-propylpiperidine-4-carboxylic acid tert-butyl amine salt], the results for the concentration giving a half-maximal response (EC50) at EDG3, on EDG5 and on EDG-1 were greater than 1000 nM, greater than 1000 nM and less than 1 nM, respectively. This compound also showed a pKi on hERG channel of less than 5.00. The pEC50 on EDG-1 (Table 1b) is greater than 9.00.
Take `CCC1(C(=O)O)CCN(Cc2ccc(-c3noc(-c4ccc(C5CCCCC5)c(Cl)c4)n3)cc2)CC1` [Example 54, 1-{4-[5-(3-Chloro-4-cyclohexylphenyl)-[1,2,4]-oxadiazol-3-yl]-benzyl}-4-ethyl-piperidine-4-carboxylic acid tert-butyl amine salt]: at EDG-1 (Table 1b), the pEC50 is greater than 9.00.
Same read-out and setting: the result for `O=C(O)C1(Cc2ccccc2)CCN(Cc2ccc(-c3noc(-c4ccc(-c5ccccc5)c(Cl)c4)n3)cc2)CC1` [Example 55, 4-Benzyl-1-{4-[5-(2-chloro-biphenyl-4-yl)-[1,2,4]-oxadiazol-3-yl]-benzyl}-piperidine-4-carboxylic acid tert-butyl amine salt] reads greater than 9.00; that for `O=C(O)C1(Cc2ccccn2)CCN(Cc2ccc(-c3noc(-c4ccc(C5CCCCC5)c(Cl)c4)n3)cc2)CC1` [Example 56, 1-{4-[5-(3-Chloro-4-cyclohexyl-phenyl)-[1,2,4]-oxadiazol-3-yl]-benzyl}-4-pyridin-2-ylmethyl-piperidine-4-carboxylic acid tert-butyl amine salt], greater than 9.00.
On the same count and under the same terms, under `COCC1(C(=O)O)CCN(Cc2ccc(-c3noc(-c4ccc(OC(C)C)c(Cl)c4)n3)cc2)CC1` [Example 57, 1-{4-[5-(3-Chloro-4-isopropoxy-phenyl)-[1,2,4]-oxadiazol-3-yl]-benzyl}-4-methoxymethyl-piperidine-4-carboxylic acid tert-butyl amine salt] stands greater than 8.00; under `O=C(O)C1(Cc2cccnc2)CCN(Cc2ccc(-c3noc(-c4ccc(-c5ccccc5)c(Cl)c4)n3)cc2)CC1` [Example 58, 1-{4-[5-(2-Chloro-biphenyl-4-yl)-[1,2,4]-oxadiazol-3-yl]-benzyl}-4-pyridin-3-ylmethyl-piperidine-4-carboxylic acid tert-butyl amine salt], greater than 9.00.
The same measure, in the same setting: under `CCOCCOCC1(C(=O)O)CCN(Cc2ccc(-c3noc(-c4ccc(CC(C)C)c(Cl)c4)n3)cc2)CC1` [Example 59, 1-{4-[5-(3-Chloro-4-isobutyl-phenyl)-[1,2,4]-oxadiazol-3-yl]-benzyl}-4-(2-ethoxy-ethoxymethyl)-piperidine-4-carboxylic acid tert-butyl amine salt] stands greater than 9.00; under `CC(C)Cc1ccc(-c2nc(-c3ccc(CN4CCC(COC(C)C)(C(=O)O)CC4)cc3)no2)cc1Cl` [Example 60, 1-{4-[5-(3-Chloro-4-isobutyl-phenyl)-[1,2,4]-oxadiazol-3-yl]-benzyl}-4-isopropoxy methyl-piperidine-4-carboxylic acid tert-butyl amine salt], greater than 9.00.
Consider `CC(C)Cc1ccc(-c2nc(-c3ccc(CN4CCC(COC5CCCC5)(C(=O)O)CC4)cc3)no2)cc1Cl` [Example 61, 1-{4-[5-(3-Chloro-4-isobutyl-phenyl)-[1,2,4]-oxadiazol-3-yl]-benzyl}-4-cyclopentyloxymethyl-piperidine-4-carboxylic acid tert-butyl amine salt], for which the pEC50 on EDG-1 (Table 1b) was greater than 9.00.
On to `CC(C)Cc1ccc(-c2nc(-c3ccc(CN4CCC(Cc5cccs5)(C(=O)O)CC4)cc3)no2)cc1Cl` [Example 62, 1-{4-[5-(3-Chloro-4-isobutyl-phenyl)-[1,2,4]-oxadiazol-3-yl]-benzyl}-4-thiophen-2-ylmethyl-piperidine-4-carboxylic acid tert-butyl amine salt], for which, on EDG-1 (Table 1b), the pEC50 was greater than 9.00.
Take `CC(C)Cc1ccc(-c2nc(-c3ccc(CN4CCC(CC5CC5)(C(=O)O)CC4)cc3)no2)cc1Cl` [Example 63, 1-{4-[5-(3-Chloro-4-isobutyl-phenyl)-[1,2,4]-oxadiazol-3-yl]-benzyl}-4-cyclopropylmethyl-piperidine-4-carboxylic acid tert-butyl amine salt]: the pEC50 on EDG-1 (Table 1b) was greater than 9.00.
Still for that read-out and setting: the result for `CC(C)Cc1ccc(-c2nc(-c3ccc(CN4CCC(CCN5CCOCC5)(C(=O)O)CC4)cc3)no2)cc1Cl` [Example 64, 1-{4-[5-(3-Chloro-4-isobutyl-phenyl)-[1,2,4]-oxadiazol-3-yl]-benzyl}-4-(2-morpholin-4-yl-ethyl)-piperidine-4-carboxylic acid] reads greater than 8.00; that for `CC(C)Cc1ccc(-c2nc(-c3ccc(CN4CCC(CCCN5CCCCC5)(C(=O)O)CC4)cc3)no2)cc1Cl` [Example 65, 1-{4-[5-(3-Chloro-4-isobutyl-phenyl)-[1,2,4]-oxadiazol-3-yl]-benzyl}-4-(3-piperidin-1-yl-propyl)-piperidine-4-carboxylic acid tert-butyl amine salt], greater than 8.00; that for `CC(C)Cc1ccc(-c2nc(-c3ccc(CN4CCC(CCCN5CCCC5)(C(=O)O)CC4)cc3)no2)cc1Cl` [Example 66, 1-{4-[5-(3-Chloro-4-isobutyl-phenyl)-[1,2,4]-oxadiazol-3-yl]-benzyl}-4-(3-pyrrolidin-1-yl-propyl)-piperidine-4-carboxylic acid tert-butyl amine salt], greater than 8.00.
In the case of `O=C(O)C1CCN(Cc2ccc(-c3noc(-c4ccc(-c5ccccc5)c(F)c4)n3)cc2)CC1` [compound 1], in the assay on circulating lymphocytes, the “Lymphopenia in rats % lymphopenia at 1 mpk/p.o dose 8 Hrs” value is 18% and the “Lymphopenia in rats % lymphopenia at 1 mpk/p.o dose 24 Hrs” value is reported as −54%. In addition, the pEC50 at EDG-1 (comparative examples table) is 7.70 to 7.93.
On the same counts, the results for `CC(C)Cc1ccc(-c2nc(-c3ccc(CN4CCC(C(=O)O)CC4)cc3)no2)cc1.Cl` [compound 2] are −25%, −101% and 7.24.
Turning to `CC(C)Cc1ccc(-c2nc(-c3ccc(CN4CCC[C@@H](C(=O)O)C4)cc3)no2)cc1` [compound 3], in the assay with circulating lymphocytes, the “Lymphopenia in rats % lymphopenia at 1 mpk/p.o dose 8 Hrs” value is −24% and the “Lymphopenia in rats % lymphopenia at 1 mpk/p.o dose 24 Hrs” value is listed as −58%. The negative-log EC50 (pEC50) on EDG-1 (comparative examples table) is 7.25.
On the same counts, the results for `Cl.O=C(O)C1CCN(Cc2ccc(-c3noc(-c4ccc(C5CCCCC5)cc4)n3)cc2)CC1` [compound 4] are 2%, −57% and 7.86.

Source of the values: US9266867B2, “Piperidinyl monocarboxylic acids as S1P1 receptor agonists” (BIOPROJET, priority 2011, dated 2016).
